Experimental data from the NIST ThermoML archive (doi:10.1016/j.fluid.2017.06.019).

Settings: Coaxial cylinder method

CCC [propane]
thermal conductivity [W/m/K]
Settings | 368.46 K | 369.12 K
3948 kPa, Gas | – | 0.04135
3960 kPa, Gas | – | 0.0417
4020 kPa, Gas | – | 0.04343
4040 kPa, Gas | – | 0.04417
4115 kPa, Gas | – | 0.0486
4120 kPa, Gas | – | 0.04907
4125 kPa, Gas | – | 0.04956
4130 kPa, Gas | – | 0.05011
4135 kPa, Gas | – | 0.05071
4140 kPa, Gas | – | 0.05135
4145 kPa, Gas | – | 0.05207
4150 kPa, Gas | – | 0.0529
4154 kPa, Gas | – | 0.05366
4156 kPa, Gas | – | 0.05402
4158 kPa, Gas | – | 0.05445
4160 kPa, Gas | – | 0.05488
4162 kPa, Gas | – | 0.0554
4164 kPa, Gas | – | 0.05743
4166 kPa, Gas | – | 0.06032
4168 kPa, Gas | – | 0.0639
4170 kPa, Gas | – | 0.06861
4172 kPa, Gas | – | 0.07431
4180 kPa, Gas | – | 0.113
4182 kPa, Gas | – | 0.127
4184 kPa, Gas | – | 0.1426
4186 kPa, Gas | – | 0.1588
4188 kPa, Gas | – | 0.179
4190 kPa, Gas | – | 0.1956
4192 kPa, Gas | – | 0.2155
4194 kPa, Liquid | – | 0.2155
4196 kPa, Liquid | – | 0.1917
4198 kPa, Liquid | – | 0.1741
4200 kPa, Liquid | – | 0.1606
4202 kPa, Liquid | – | 0.1497
4204 kPa, Liquid | – | 0.1407
4206 kPa, Liquid | – | 0.1335
4208 kPa, Liquid | – | 0.1259
4210 kPa, Liquid | – | 0.1185
4212 kPa, Liquid | – | 0.1121
4213 kPa, Liquid | – | 0.1093
4215 kPa, Liquid | – | 0.1035
4228 kPa, Liquid | – | 0.08399
4230 kPa, Liquid | – | 0.08176
4232 kPa, Liquid | – | 0.07987
4234 kPa, Liquid | – | 0.07806
4236 kPa, Liquid | – | 0.07633
4238 kPa, Liquid | – | 0.07491
4240 kPa, Liquid | – | 0.07344
4260 kPa, Liquid | – | 0.06913
4280 kPa, Liquid | – | 0.06803
4300 kPa, Liquid | – | 0.06726
4312 kPa, Liquid | 0.0651 | –
4314 kPa, Liquid | 0.06505 | –
4316 kPa, Liquid | 0.06503 | –
4318 kPa, Liquid | 0.06501 | –
4320 kPa, Liquid | 0.06499 | 0.06665
4322 kPa, Liquid | 0.06499 | –
4324 kPa, Liquid | 0.06497 | –
4326 kPa, Liquid | 0.06493 | –
4328 kPa, Liquid | 0.06493 | –
4330 kPa, Liquid | 0.06489 | –
4332 kPa, Liquid | 0.06487 | –
4334 kPa, Liquid | 0.06484 | –
4336 kPa, Liquid | 0.06484 | –
4338 kPa, Liquid | 0.06482 | –
4340 kPa, Liquid | 0.06482 | 0.06616
4345 kPa, Liquid | 0.06476 | –
4350 kPa, Liquid | 0.06472 | –
4355 kPa, Liquid | 0.06468 | –
4360 kPa, Liquid | 0.06461 | –
4365 kPa, Liquid | 0.06458 | –
4368 kPa, Liquid | 0.06458 | –
4375 kPa, Liquid | 0.06454 | –
4380 kPa, Liquid | 0.0645 | 0.06546
4385 kPa, Liquid | 0.06446 | –
4390 kPa, Liquid | 0.06443 | –
4400 kPa, Liquid | 0.06439 | 0.06519
4450 kPa, Liquid | 0.06421 | –
4500 kPa, Liquid | 0.06413 | –
4550 kPa, Liquid | 0.06411 | –
4600 kPa, Liquid | 0.06411 | –
4650 kPa, Liquid | 0.06421 | –
4700 kPa, Liquid | 0.06427 | –
4750 kPa, Liquid | 0.06439 | –
4800 kPa, Liquid | 0.06451 | –
4900 kPa, Liquid | 0.06477 | –
4960 kPa, Liquid | 0.06496 | –
4965 kPa, Liquid | 0.065 | –
4967 kPa, Liquid | 0.065 | –
5000 kPa, Liquid | 0.06509 | –
5100 kPa, Liquid | 0.06542 | –
5200 kPa, Liquid | 0.06573 | –
5300 kPa, Liquid | 0.06605 | –
5400 kPa, Liquid | 0.06646 | –
5500 kPa, Liquid | 0.06674 | –
5600 kPa, Liquid | 0.06707 | –
5700 kPa, Liquid | 0.06732 | –
5800 kPa, Liquid | 0.06767 | –
5900 kPa, Liquid | 0.06794 | –
6010 kPa, Liquid | 0.06831 | –
6020 kPa, Liquid | 0.06831 | –
6200 kPa, Liquid | 0.06884 | –
6210 kPa, Liquid | 0.06886 | –
8500 kPa, Liquid | – | 0.0737
9020 kPa, Liquid | – | 0.07453
10028 kPa, Liquid | – | 0.07577
14772 kPa, Liquid | – | 0.08097
